The nature of data set [1]: In vivo pharmacokinetic study in rats, intravenous. To be noted: rat, 2 mg/kg.
Experimental: Rats were used as test subjects. […] This study evaluated the pharmacokinetic behavior of the compounds in rats and assessed their pharmacokinetic characteristics.
Intravenous push injection was performed over approximately 5 minutes, with a dose of 2 mg/kg, a concentration of 0.4 mg/mL, and a volume of 5 mL/kg.
(§1) Sodium heparin was used as an anticoagulant. Immediately after collection, whole blood proteins were precipitated using methanol:acetonitrile (1:1), and the supernatant was transferred for LC/MS/MS analysis.
Data set [2] can be described thus: Pharmacokinetic study in crab-eating monkeys, intravenous infusion. To be noted: monkey, 2 mg/kg.
Experimental: Crab-eating monkeys were used as test subjects.
Intravenous infusion was performed over 30 minutes, with a dose of 2 mg/kg, a concentration of 0.4 mg/mL, and a volume of 5 mL/kg.
as §1
A short description of data set [3]: Liver S9 stability assay (conversion to parent drug). The format is in vitro ADME. To be noted: human liver S9 with NADPH, 37 °C. As for the experimental part: Human pooled liver S9 (Vendor: Xenotech), thawed in a 37°C water bath before use.
Weigh a certain amount of the example compound, dissolve in DMSO to prepare a 10 mM stock solution, then dilute an appropriate volume of the stock solution with DMSO to obtain a 200 µM working solution.
Take 1.5 µL of the 200 µM working solution of the example compound and add it to 238.5 µL of liver S9 working solution, pre-incubate in a 37°C water bath for 5 min; then add 60 µL of NADPH working solution to initiate the reaction and mix by gentle inversion. At the 0 min time point, transfer the above mixture into quenching solution and mix; at the 5, 15, 30, and 60 min time points, transfer the mixture into quenching solution and DMSO and mix. […] Collect the supernatant for LC-MS analysis.

Data set [4] concerns red blood cell suspension. The data set can be described thus: In vitro human hemolysis assay. The format is cell-based. The settings on record: concentrations as high as 200 µM, 37 °C, 45 minutes.
Experimental: Collect the whole blood and store it in a 250 mL Erlenmeyer flask. Shake at 500 rpm for 10 minutes to remove fibrinogen, producing defibrinated blood. Wash with physiological saline (blood volume: saline volume = 1:4). Centrifuge the blood/saline mixture at 2500 rpm for 15 minutes at 4°C, discard the supernatant. Wash the sedimented red blood cells several times with physiological saline (blood volume: saline volume = 1:4) and centrifuge at 2500 rpm for 15 minutes until the supernatant is no longer red. Prepare a red blood cell suspension using physiological saline at a ratio of 1:49 (cell volume: saline volume) and store at 4°C until use.
Observe for aggregation every 15 minutes. • 3) Centrifuge the resulting solution at 4000 rpm for 15 minutes at 4°C. Transfer 100 µL of the supernatant and measure absorbance at 540 nm to calculate the hemolysis rate (%).
A short description of another data set: Thermodynamic solubility. The format is physicochemical. The settings on record: aqueous buffer, thermodynamic from solid; 100 mM phosphate buffer pH 7.4, room temperature, shaking 16 hours.
Data set [5] can be described thus: Plasma stability assay (conversion to parent drug). The format is in vitro ADME. To be noted: human plasma, 37 °C, 1 µM. As for the experimental part:
Human plasma (Vendor: AoNeng Biotech).
A certain amount of the compound of the examples was weighed and dissolved in DMSO to prepare a 10 mM stock solution. An aliquot of the 10 mM stock solution was diluted with DMSO to obtain a 1600 µM intermediate solution. An aliquot of the 1600 µM intermediate solution was further diluted with 45% methanol to prepare a 16 µM working solution.
• 1) Plasma was pre-incubated in a water bath at 37 °C for 5 min. • 2) 4 µL of the 16 µM working solution of the compound of the examples was added to 60 µL of plasma to give a final compound concentration of 1 µM, and the mixture was gently mixed. • 3) Samples were incubated at each time point (0, 15, 30, 60, and 120 min). After incubation, 192 µL of acetonitrile containing an internal standard was added, followed by shaking on a shaker for 1 min. The mixture was centrifuged at 3700 rpm at 4 °C for 20 min, and the supernatant was collected for LC-MS analysis.

The mark [6] stands for this setting: time point 0 min, parent drug = Lorapiprant.

Data on 5 molecules can be found in EP4741406A1, “NEUROKININ-1 RECEPTOR ANTAGONIST COMPOUND” (Creadev (Nanjing) Pharmaceutical Technology Co., Ltd., priority 2023, dated 2025).

Molecules are shown by their SMILES. Values after ≈ are worked out from the molar mass of the structure shown.

Experimental for Thermodynamic solubility: 100 mM phosphate buffer solution: Dissolve 7.94 g of K2HPO4.3H2O and 2.07 g of KH2PO4 in 500 mL ultrapure water. Adjust the solution pH to 7.4 with 1 N NaOH, then filter and set aside.
Accurately weigh an appropriate amount of the example compound and add it in small portions to 100 mM phosphate buffer solution to prepare a final concentration of 20 mg/mL. After shaking at room temperature for 16 hours, let stand for 30 min, then filter the supernatant and dilute with DMSO. Add the diluted sample solution to quenching solution, mix thoroughly, and analyze by LC/MS.

On to `C[C@@H](OC[C@@]1(c2ccccc2)CC[C@]2(CCC(=O)N2)CN1C(=O)OCOP(=O)(O)O)c1cc(C(F)(F)F)cc(C(F)(F)F)c1` [Compound of formula (I), reference compound], for which, in data set [1] (whole blood), the AUC(0-t) stood at 82.6 ng·h/mL, the Cmax was found to be 328 ng/mL, the MRT inf is 21 min and the Tmax is 5 min. Besides, in data set [1] (whole blood), the half-life was 26.3 min. In data set [2] (whole blood), the exposure AUC(0-t) came out at 688 ng·h/mL, the Cmax came out at 2110 ng/mL, the Tmax turned out to be 30 min and the half-life was 9.06 min.
As to `C[C@@H](OC[C@@]1(c2ccccc2)CC[C@]2(CCC(=O)N2)CN1C(=O)OCSSCCC(=O)O)c1cc(C(F)(F)F)cc(C(F)(F)F)c1` [Example 33], the Parent drug% is on record as 13.2% in data set [3] (setting [6]); 22.5% in data set [3] (time point 5 min); 41.9% in data set [3] (time point 15 min); 50.0% in data set [3] (time point 30 min); 57.3% in data set [3] (time point 60 min).
Consider `C[C@@H](OC[C@@]1(c2ccccc2)CC[C@]2(CCC(=O)N2)CN1C(=O)OCSSCCCOS(=O)(=O)O)c1cc(C(F)(F)F)cc(C(F)(F)F)c1` [Example 39], for which, in data set [1] (whole blood), the AUC(0-t) stood at 19.9 ng·h/mL, the Cmax stood at 116 ng/mL, the MRT inf came to 7.56 min and the Tmax came to 5 min. For the same molecule, the half-life in data set [1] (whole blood) is 8.34 min. Besides, the hemolytic activity result in data set [4] is “no hemolytic activity”. Besides, the solubility at 16 h in the data set “Thermodynamic solubility” turned out to be 6.54 mg/mL (≈ 8.6 mM).
`C[C@@H](OC[C@@]1(c2ccccc2)CC[C@]2(CCC(=O)N2)CN1C(=O)OCSSCCS(=O)(=O)O)c1cc(C(F)(F)F)cc(C(F)(F)F)c1` [Example 42]: the Parent drug% in data set [3] (setting [6]) is on record as 34.8%; in data set [3] (time point 5 min), 40.6%; in data set [3] (time point 15 min), 48.5%; in data set [3] (time point 30 min) it was 51.9%; in data set [3] (time point 60 min), 44.0%; in data set [5] (setting [6]), 6.09%. Further, the Parent drug% was determined as 52.71% in data set [5] (time point 15 min), 60.94% in data set [5] (time point 30 min), 53.88% in data set [5] (time point 60 min) and 66.59% in data set [5] (time point 120 min). The AUC(0-t) in data set [1] (in vivo) amounted to 9.42 ng·h/mL; in data set [2] (in vivo), 528 ng·h/mL. The values for the Cmax in data set [1] (in vivo) and in data set [2] (in vivo) were 61.2 ng/mL and 1620 ng/mL, respectively. Also, in data set [1] (in vivo), the mean residence time (MRT inf) was 5.45 min. Also, the figures for the Tmax in data set [1] (in vivo) and in data set [2] (in vivo) were 5 min and 30 min, respectively. In addition, the figures for the half-life in data set [1] (in vivo) and in data set [2] (in vivo) were 4.66 min and 6.06 min, respectively. In “Thermodynamic solubility”, this molecule showed a solubility at 16 h of 13.2 mg/mL (≈ 18.1 mM).
`C[C@@H](OC[C@@]1(c2ccccc2)CC[C@]2(CCC(=O)N2)CN1C(=O)OCSSCCOCCOCCOCCC(=O)O)c1cc(C(F)(F)F)cc(C(F)(F)F)c1` [Example 47] showed a solubility at 16 h in “Thermodynamic solubility” of 10.9 mg/mL (≈ 13.2 mM).

One may read the AUC(0-t) as the area under the concentration-time curve up to a stated or last time point. A lower AUC(0-t) goes with low exposure. By Cmax is commonly meant the highest concentration seen after dosing. As a reminder, the MRT inf is the average time that molecules of a dose stay in the body. As usually defined, the Tmax is the time from dosing to the highest level. One may read the half-life as the time in which the quantity being followed falls by half. Higher therefore signals slow decline. What is called solubility is how much of the substance goes into solution per volume. The low end stands for a poorly soluble substance, the high end for a readily soluble substance.
